From ChEMBL document CHEMBL3046527, “NAD+-dependent DNA ligase (Rv3014c) from M. tuberculosis: Strategies for inhibitor design” (Med Chem Res, 2008)

Target: DNA ligase A (Mycobacterium tuberculosis, UniProt P9WNV1)
Assay: Inhibition of Mycobacterium tuberculosis LigA

| SMILES | IC50 [µM] |
| --- | --- |
| CC1(C)O[C@H]2OC([C@H](CCO)NCCCN[C@H](CCO)C3O[C@@H]4OC(C)(C)O[C@@H]4[C@H]3OCc3ccccc3)[C@H](OCc3ccccc3)[C@H]2O1 (some centres not stated) | 46.2 |
| CCN(CC)CCCC(C)Nc1ccnc2c1C=CC(Cl)C2 (configuration not stated) | 46 |
